{"source": "patent US6784192B2", "about": "“Piperidine compound and pharmaceutical composition thereof” (Eisai Co., Ltd., priority 2000, dated 2004)", "key": {"[1]": {"test_system": "atrial muscle of anesthetized thoracotomy dog", "assay": "Effective refractory period (ERP) in anesthetized thoracotomy dog", "type": "in vivo", "conditions": "for Measurement Value of ERP: mean", "source_text": "(§1) (1) An anesthetized thoracotomy dog was used for the present experiment. After opening brisket at a median line and cutting epicardium, bipolar electrodes for determination of a potential wave form were respectively stitched at the free walls of right and left atriums. Further, a wire electrode was inserted in the free wall of a right atrium to be fixed and used for electrical simulation.\n(2) A program electrical stimulation equipment was connected with the electrode for electrical stimulation at the right atrium, the electrical stimulation was carried out at a stimulation periodical length of 500 mess, and a threshold for the electrical stimulation was measured. The electrical stimulation intensity for the experiments below was set to carry out stimulation at 3-fold of this threshold. However, when the threshold was 0.7 V or less, the electrical stimulation was carried out at 2.0 V. Effective refractory period (ERP) provided early premature stimulation (S2) after the basic stimulation (S1) of 10 times, and the longest linking period in which atrium potential was not generated by the premature stimulation was referred to as ERP, while shortening the linking period (S1-S2) by 5 mess. Similar experiments were also carried out for the respective basic stimulation length (BCL) of 400, 300, 250 and 200 mess (control experiment: 1 series). After carrying out 2 times or more of the control experiments and confirming that ERP was stable, the tested substance was subsequently administered, and similar measurement was carried out. After the tested substance was administered once intravenously for 5 minutes, its keeping dose was subsequently administered intravenously. After 10 minutes of the administration start of the keeping dose, ERP was measured in the respective stimulation frequency. After completion of the one series of measurements, the concentration of the tested substance was increased and the similar experiments were repeated. The ERP and conduction time in the atrium in the respective stimulation frequency were compared with various indices under control condition. The result is shown by mean."}, "[2]": {"test_system": "atrial fibrillation (AF) in anesthetized thoracotomy dog", "assay": "Effect of termination and prevention of atrium fibrillation (AF) in anesthetized thoracotomy dog", "type": "in vivo", "conditions": "samples with effect / samples tested", "source_text": "as §1, with “simulation. After cutting cervix at a median line, right and left vagal nerves were peeled. Wire electrodes for stimulating vagal nerves were inserted along the surface layers of the respective both sides to be fixed and used as stimulation for vagal nerves.” for “simulation.”\n(2) Electrical stimulation was carried out under conditions: a stimulation duration of 0.1 mess; a x stimulation frequency of 20 Hz; and a stimulation intensity of 3 to 7 V. After 5 minutes of the start of the stimulation, high frequency stimulation (10 Hz, 1 sec) was applied to the right atrium, and the induction of atrial fibrillation (hereinafter, abbreviated as “AF”) was tried. The stimulation intensity of high frequency stimulation of the right atrium was carried out from 1.0 V, and when AF was not induced, induction was tried by increasing the stimulation intensity to 5.0 V. After AF was induced, observation for 30 minutes was carried out, it was confirmed that AF is kept (control experiment). Further, when AF induced was not kept for 30 minutes, the experiment was stopped.\n(3) After confirming that AF was kept for 30 minutes or more in the control experiment, the stimulation of vagal nerve was intercepted, and the dog was rested for about one hour to be recovered. After that, similarly, AF was induced again. Further, the stimulation of vagal nerve at this time was carried out at the higher stimulation intensity by about 2 V than at the control experiment. After 5 minutes of the induction of AF, the administration of a tested substance was carried out. The tested substance was administered intravenously over 5 minutes. After completion of the administration, observation was carried out for 5 minutes, and when the termination of AF was not observed, the dose was increased and the observation was similarly carried out. When AF was stopped, the induction of AF was tried again just after termination. At this time, when AF which was continued for one minute or more was induced again, it was judged as no effect of prevention, and experiment was similarly carried out by increasing the dose.\nIn the Table, the number of the denominator indicates the number of the sample used for test, and the number of the numerator indicates the number of the sample in which the effect was confirmed."}}}
{"compound": "CS(=O)(=O)c1ccsc1CCC1CCN(Cc2ccc[nH]c2=O)CC1", "note": "[Example 135, 1-[(2-Oxo-1,2-dihydro-3-pyridinyl)methyl]-4-[2-(3-methylsulfonyl-2-thienyl)ethyl]piperidine]", "values": [{"measurement": "Measurement Value of ERP", "setting": "[1]; dose 0.1 mg/kg intravenously, BCL 200 msec", "result": 125.0, "unit": "ms"}, {"measurement": "Measurement Value of ERP", "setting": "[1]; dose 0.1 mg/kg intravenously, BCL 250 msec", "result": 138.3, "unit": "ms"}, {"measurement": "Measurement Value of ERP", "setting": "[1]; dose 0.1 mg/kg intravenously, BCL 300 msec", "result": 155.0, "unit": "ms"}, {"measurement": "Measurement Value of ERP", "setting": "[1]; dose 0.1 mg/kg intravenously, BCL 400 msec", "result": 170.0, "unit": "ms"}, {"measurement": "Measurement Value of ERP", "setting": "[1]; dose 0.1 mg/kg intravenously, BCL 500 msec", "result": 178.3, "unit": "ms"}, {"measurement": "Percent change in ERP versus pre-dose control", "setting": "[1]; dose 0.1 mg/kg, BCL 200 msec", "result": 7.1, "unit": "%"}, {"measurement": "Percent change in ERP versus pre-dose control", "setting": "[1]; dose 0.1 mg/kg, BCL 250 msec", "result": 3.9, "unit": "%"}, {"measurement": "Percent change in ERP versus pre-dose control", "setting": "[1]; dose 0.1 mg/kg, BCL 300 msec", "result": 5.7, "unit": "%"}, {"measurement": "Percent change in ERP versus pre-dose control", "setting": "[1]; dose 0.1 mg/kg, BCL 400 msec", "result": 3.0, "unit": "%"}, {"measurement": "Percent change in ERP versus pre-dose control", "setting": "[1]; dose 0.1 mg/kg, BCL 500 msec", "result": 3.1, "unit": "%"}, {"measurement": "Measurement Value of ERP", "setting": "[1]; dose 0.3 mg/kg intravenously, BCL 200 msec", "result": 138.3, "unit": "ms"}, {"measurement": "Measurement Value of ERP", "setting": "[1]; dose 0.3 mg/kg intravenously, BCL 250 msec", "result": 150.0, "unit": "ms"}, {"measurement": "Measurement Value of ERP", "setting": "[1]; dose 0.3 mg/kg intravenously, BCL 300 msec", "result": 166.7, "unit": "ms"}, {"measurement": "Measurement Value of ERP", "setting": "[1]; dose 0.3 mg/kg intravenously, BCL 400 msec", "result": 181.7, "unit": "ms"}, {"measurement": "Measurement Value of ERP", "setting": "[1]; dose 0.3 mg/kg intravenously, BCL 500 msec", "result": 190.0, "unit": "ms"}, {"measurement": "Percent change in ERP versus pre-dose control", "setting": "[1]; dose 0.3 mg/kg, BCL 200 msec", "result": 18.6, "unit": "%"}, {"measurement": "Percent change in ERP versus pre-dose control", "setting": "[1]; dose 0.3 mg/kg, BCL 250 msec", "result": 12.6, "unit": "%"}, {"measurement": "Percent change in ERP versus pre-dose control", "setting": "[1]; dose 0.3 mg/kg, BCL 300 msec", "result": 13.7, "unit": "%"}, {"measurement": "Percent change in ERP versus pre-dose control", "setting": "[1]; dose 0.3 mg/kg, BCL 400 msec", "result": 10.1, "unit": "%"}, {"measurement": "Percent change in ERP versus pre-dose control", "setting": "[1]; dose 0.3 mg/kg, BCL 500 msec", "result": 9.8, "unit": "%"}, {"measurement": "Measurement Value of ERP", "setting": "[1]; dose 1 mg/kg intravenously, BCL 250 msec", "result": 183.3, "unit": "ms"}, {"measurement": "Measurement Value of ERP", "setting": "[1]; dose 1 mg/kg intravenously, BCL 300 msec", "result": 195.0, "unit": "ms"}, {"measurement": "Measurement Value of ERP", "setting": "[1]; dose 1 mg/kg intravenously, BCL 400 msec", "result": 203.3, "unit": "ms"}, {"measurement": "Measurement Value of ERP", "setting": "[1]; dose 1 mg/kg intravenously, BCL 500 msec", "result": 208.3, "unit": "ms"}, {"measurement": "Percent change in ERP versus pre-dose control", "setting": "[1]; dose 1 mg/kg, BCL 250 msec", "result": 37.9, "unit": "%"}, {"measurement": "Percent change in ERP versus pre-dose control", "setting": "[1]; dose 1 mg/kg, BCL 300 msec", "result": 33.2, "unit": "%"}, {"measurement": "Percent change in ERP versus pre-dose control", "setting": "[1]; dose 1 mg/kg, BCL 400 msec", "result": 23.4, "unit": "%"}, {"measurement": "Percent change in ERP versus pre-dose control", "setting": "[1]; dose 1 mg/kg, BCL 500 msec", "result": 20.6, "unit": "%"}, {"measurement": "the termination effect", "setting": "[2]; dose 0.3 mg/kg intravenously over 5 minutes", "result": "1/3"}, {"measurement": "the prevention effect", "setting": "[2]; dose 0.3 mg/kg intravenously", "result": "1/1"}, {"measurement": "the termination effect", "setting": "[2]; dose 1 mg/kg intravenously over 5 minutes", "result": "2/2"}, {"measurement": "the prevention effect", "setting": "[2]; dose 1 mg/kg intravenously", "result": "2/2"}]}
